Measured values published in US9913849B2, “Treatment of migraines” (Manistee Partners LLC, priority 2014, dated 2018).
Like-named read-outs stand apart in the source and are kept apart here.

What was measured:
[1] = test system: subject with a history of migraine headaches; assay: Migraine case reports, topical administration to the eye(s); assay type: in vivo, human; conditions: Example 1: person, 0.0004% single drop in both eyes once per day in the evening, 30 days
Method: A subject was treated with ocular administration of travoprost 0.0004% once per day as a single drop in both eyes in the evening. The subject reported that they had no migraines after being on therapy for 30 days.
A person with a fifteen year history of severe migraine headaches refractory to multiple therapies, started treatment with TRAVATAN Z® (travoprost ophthalmic solution) administered topically to one eye daily.
A person with a history of migraine headaches (one per week) was started on daily topical administration of the prostaglandin, XALATAN® (latanoprost ophthalmic solution), to both eyes daily.

[2] = cited from earlier work
[3] = cited from earlier work; remark: listed apart in the source
[4] = one drop 0.0015% solution once daily into each eye, cited from earlier work
[5] = cited from earlier work; remark: listed apart in the source
[6] = blood, days 7 and 14, 0.03% once daily to both eyes

## CC(C)OC(=O)CCC/C=C\C[C@@H]1[C@@H](/C=C/[C@@H](O)COc2cccc(C(F)(F)F)c2)[C@H](O)C[C@@H]1O (relative stereo) [travoprost, [1R-[1α(Z),2β(1E,3R*),3α, 5α]]-7-[3,5-Dihydroxy-2-[3-hydroxy-4-[3-(trifluoromethyl)phenoxy]-1-butenyl]cyclopentyl]-5-heptenoic acid, 1-methylethylester]
[1]
  migraines reported on therapy: no migraines

## CCNC(=O)CCC/C=C\C[C@@H]1[C@@H](/C=C/[C@@H](O)CCc2ccccc2)[C@H](O)C[C@@H]1O [Bimatoprost, (Z)-7-[(1R,2R,3R,5S)-3,5Dihydroxy-2-[(1E,3S)-3-hydroxy-5-phenyl-1-pentenyl]cyclopentyl]-5-N-ethylheptenamide]
[2]; [6]
  mean AUCO-24 hr: ~0.09 ng·h/mL
  mean Cmax: approximately 0.08 ng/mL
[2]; human blood
  distribution in human blood: resides mainly in the plasma
[2]; human, in vivo
  steady-state volume of distribution: 0.67 L/kg
[2]; in most subjects within 1.5 hours after dosing, 0.03% once daily to both eyes
  blood concentration (below lower limit of detection): < 0.025 ng/mL
[2]; one drop 0.03% once daily to both eyes, 15 healthy subjects, two weeks
  time at which blood concentrations peaked after dosing: ≤ 10 min

## CC(C)OC(=O)CCC/C=C\C[C@@H]1[C@@H](CC[C@@H](O)CCc2ccccc2)[C@H](O)C[C@@H]1O [Latanoprost, isopropyl-(Z)7[(1R,2R,3R,5S)3,5-dihydroxy-2-[(3R)-3-hydroxy-5-phenylpentyl]cyclopentyl]-5-heptenoate, reference compound]
[3]; in humans
  distribution volume: 0.16 ± 0.02 L/kg

## O=C(O)CCC/C=C\C[C@@H]1[C@@H](CC[C@@H](O)CCc2ccccc2)[C@H](O)C[C@@H]1O [acid of latanoprost]
[3]; after local administration
  time during which the acid can be measured in aqueous humor: ≤ 4 h
  time during which the acid can be measured in plasma: only during the first hour

## O=C(O)CCC/C=C\C[C@@H]1[C@@H](/C=C/C(F)(F)COc2ccccc2)[C@H](O)C[C@@H]1O [tafluprost acid]
[4]; Day 1
  mean plasma AUC estimate of tafluprost acid: 394 pg·min/mL
  mean plasma Cmax of tafluprost acid: 0.026 ng/mL
[4]; Day 8
  mean plasma AUC estimate of tafluprost acid: 432 pg·min/mL
  mean plasma Cmax of tafluprost acid: 0.027 ng/mL
[4]; healthy volunteers, both Days 1 and 8
  median time at which plasma concentrations of tafluprost acid peaked: 10 min

## O=C(O)CCC/C=C\C[C@@H]1[C@@H](/C=C/[C@@H](O)COc2cccc(C(F)(F)F)c2)[C@H](O)C[C@@H]1O [travoprost free acid]
[5]; individuals with quantifiable plasma concentrations (N=38)
  mean plasma Cmax: 0.018 ± 0.007 ng/mL
[5]; single drop daily in both eyes, in two-thirds of the subjects
  plasma concentrations of the free acid (below quantitation limit of the assay): below 0.01 ng/ml
